Patent US10774052B2, “Heteroaryl compounds and uses thereof” (Celgene CAR LLC, priority 2013, dated 2020)

Key:
[1] = test system: pFGFR4 in MDA-MB-453 cells; experiment: FGFR4 signaling, pFGFR4 (MDA); Western blot (Method A), MSD (Method B), ELISA (Method C); type: cell-based; details: Homo sapiens, Method B (MSD) for signaling EC50 determination
Protocol: The MDA-MB-453 protein concentrations were determined by a BCA Assay (Pierce, Rockford, Ill.). A sample of 50-100 μg of each lysate was separated by a 4-12% gradient (SDS-PAGE (Invitrogen)), transferred to a nitrocellulose membrane (Biorad, Hercules, Calif.), and probed with specific antibodies. Phospho-protein signals were quantitated using Odyssey Infrared Imaging (Li-Cor Biosciences).
To assess phospho-FGFR signaling, the blots were probed with anti-Phospho-FGFR (Y653/Y654) and total anti-FGFR antibodies. The phospho-FGFR signal was normalized to total FGFR expression for each sample.

[2] = test system: pFGFR4 in Huh7 cells; experiment: FGFR4 signaling, pFGFR4 (Huh); MSD (Method B); type: cell-based; details: Homo sapiens, Huh-7; Huh7 cells; read-out: Signaling EC50 (nM) pFGFR4 (Huh)

Row | Structure (SMILES) | EC50 ([1]; MDA-MB-453 cells) | EC50 [2] | EC50 ([1]; MDA-MB-453, MDA-MB-453 cells)
1 | C=CC(=O)NC1CCCCC1Nc1ncc2c(n1)N(CCF)C(=O)N(c1c(Cl)c(OC)cc(OC)c1Cl)C2 (racemic) [Compound I-106] | – | 101 to 500 nM | 101 to 500 nM
2 | C=CC(=O)Nc1ccccc1Nc1ncc2c(n1)NC(=O)N(c1cc(OC)cc(OC)c1)C2 [Compound I-125] | – | > 1000 nM | 501 to 999 nM
3 | C=CC(=O)NC1CCCCC1Nc1ncc2c(n1)N(CC(F)F)C(=O)N(c1c(Cl)c(OC)cc(OC)c1Cl)C2 (racemic) [Compound I-105] | – | 101 to 500 nM | 101 to 500 nM
4 | C=CC(=O)NC1CCCCC1Nc1ncc2c(n1)N(CCF)C(=O)N(c1cc(OC)cc(OC)c1Cl)C2 (racemic) [Compound I-111] | – | > 1000 nM | 501 to 999 nM
5 | C=CC(=O)NC1CCCCC1Nc1ncc2c(n1)N(C1CC1)C(=O)N(c1c(Cl)c(OC)cc(OC)c1Cl)C2 (racemic) [Compound I-68] | – | 501 to 999 nM | 101 to 500 nM
6 | C=CC(=O)NC1COCC1Nc1ncc2c(n1)N(C)C(=O)N(c1c(Cl)c(OC)cc(OC)c1Cl)C2 (stereo not shown) [Compound I-126] | – | < 100 nM | < 100 nM
7 | C=CC(=O)N[C@H]1CCCC[C@H]1Nc1ncc2c(n1)N(C)C(=O)N(c1c(F)c(OC)cc(OC)c1F)C2 [Compound I-143] | 101 to 500 nM | 101 to 500 nM | –
8 | C=CC(=O)Nc1ccccc1Nc1ncc2c(n1)N(C1CCCN(C(=O)OC(C)(C)C)C1)C(=O)N(c1cc(OC)cc(OC)c1)C2 (stereo not shown) [Compound I-36] | 101 to 500 nM | 101 to 500 nM | –
9 | C=CC(=O)Nc1ccccc1Nc1ncc2c(n1)N(CCF)C(=O)N(c1cc(OC)cc(OC)c1)C2 [Compound I-102] | 101 to 500 nM | < 100 nM | –
10 | C=CC(=O)Nc1cc(-c2nnn(C)n2)ccc1Nc1ncc2c(n1)N(C)C(=O)N(c1cc(OC)cc(OC)c1)C2 [Compound I-146] | 101 to 500 nM | 101 to 500 nM | –
11 | C=CC(=O)NC1CCCCC1Nc1ncc2c(n1)N(C)C(=O)N(c1cc(OC)cc(OC)c1Cl)C2 (racemic) [Compound I-76] | – | > 1000 nM | 501 to 999 nM
12 | C=CC(=O)Nc1ccccc1Nc1ncc2c(n1)N(C1COC1)C(=O)N(c1cc(OC)cc(OC)c1)C2 [Compound I-88] | 101 to 500 nM | 101 to 500 nM | –
13 | C=CC(=O)Nc1cc(N(C)CCOC)ccc1Nc1ncc2c(n1)N(Cc1ccccc1)C(=O)N(c1cc(OC)cc(OC)c1)C2 [Compound I-13] | – | 101 to 500 nM | 101 to 500 nM
14 | C=CC(=O)NC1CCCCC1Nc1ncc2c(n1)N(CC(F)F)C(=O)N(c1c(F)c(OC)cc(OC)c1F)C2 (stereo not shown) [Compound I-115] | 101 to 500 nM | 101 to 500 nM | –
15 | C=CC(=O)Nc1ccccc1Nc1ncc2c(n1)N(CC(F)F)C(=O)N(c1cc(OC)cc(OC)c1)C2 [Compound I-99] | 101 to 500 nM | 101 to 500 nM | –
16 | C=CC(=O)Nc1ccccc1Nc1ncc2c(n1)N(Cc1cccc(C(N)=O)c1)C(=O)N(c1cc(OC)cc(OC)c1)C2 [Compound I-97] | 101 to 500 nM | 101 to 500 nM | –
17 | C=CC(=O)NC1CCCCC1Nc1ncc2c(n1)N(CC#N)C(=O)N(c1c(Cl)c(OC)cc(OC)c1Cl)C2 (racemic) [Compound I-47] | 101 to 500 nM | 501 to 999 nM | –
18 | C=CC(=O)NC1CN(C(C)=O)CC1Nc1ncc2c(n1)N(C)C(=O)N(c1c(Cl)c(OC)cc(OC)c1Cl)C2 (racemic) [Compound I-139] | 101 to 500 nM | 101 to 500 nM | –
19 | C=CC(=O)N[C@@H]1COC[C@@H]1Nc1ncc2c(n1)N(C)C(=O)N(c1c(Cl)c(OC)cc(OC)c1Cl)C2 [Compound I-185] | – | > 1000 nM | 101 to 500 nM
20 | C=CC(=O)Nc1ccccc1Nc1ncc2c(n1)N(C)C(=O)N(c1cc(OC)cc(OC)c1)C2 [Compound I-5] | 101 to 500 nM | 101 to 500 nM | –

Continued, in another order:

Row | EC50 ([1]; MDA-MB-453 cells) | EC50 [2] | Structure (SMILES) | EC50 ([1]; MDA-MB-453, MDA-MB-453 cells)
21 | < 100 nM | < 100 nM | C=CC(=O)NC1CCCCC1Nc1ncc2c(n1)N(Cc1ccnc(N)c1)C(=O)N(c1c(Cl)c(OC)cc(OC)c1Cl)C2 (stereo not shown) [Compound I-133] | –
22 | < 100 nM | < 100 nM | C=CC(=O)Nc1ccccc1Nc1ncc2c(n1)N(CC(F)F)C(=O)N(c1cc(OC)cc(OC)c1Cl)C2 [Compound I-104] | –
23 | < 100 nM | < 100 nM | C=CC(=O)Nc1cc(-c2nnnn2C)ccc1Nc1ncc2c(n1)N(C)C(=O)N(c1c(Cl)c(OC)cc(OC)c1Cl)C2 [Compound I-153] | –
24 | < 100 nM | < 100 nM | C=CC(=O)Nc1cc(N(C)CCOC)ccc1Nc1ncc2c(n1)N(C)C(=O)N(c1cc(OC)cc(OC)c1)C2 [Compound I-21] | –
25 | 101 to 500 nM | 101 to 500 nM | C=CC(=O)Nc1ccccc1Nc1ncc2c(n1)N(Cc1cscn1)C(=O)N(c1cc(OC)cc(OC)c1)C2 [Compound I-64] | –
26 | < 100 nM | < 100 nM | C=CC(=O)Nc1ccccc1Nc1ncc2c(n1)N(CC1CC1)C(=O)N(c1cc(OC)cc(OC)c1Cl)C2 [Compound I-100] | –
27 | 101 to 500 nM | 101 to 500 nM | C=CC(=O)N[C@H]1COCC[C@H]1Nc1ncc2c(n1)N(C)C(=O)N(c1c(Cl)c(OC)cc(OC)c1Cl)C2 [Compound I-140] | –
28 | < 100 nM | < 100 nM | C=CC(=O)Nc1ccccc1Nc1ncc2c(n1)N(CCF)C(=O)N(c1cc(OC)cc(OC)c1Cl)C2 [Compound I-110] | –
29 | 101 to 500 nM | > 1000 nM | C=CC(=O)Nc1ccccc1Nc1ncc2cc(-c3cc(OC)cc(OC)c3)c(N)nc2n1 [Compound I-155] | –
30 | 101 to 500 nM | 101 to 500 nM | C=CC(=O)NC1CCCCC1Nc1ncc2c(n1)N(Cc1csc(C)n1)C(=O)N(c1c(Cl)c(OC)cc(OC)c1Cl)C2 (stereo not shown) [Compound I-137] | –
31 | 101 to 500 nM | < 100 nM | C=CC(=O)NC1CCCCC1Nc1ncc2c(n1)N(Cc1ccccc1)C(=O)N(c1c(Cl)c(OC)cc(OC)c1Cl)C2 (racemic) [Compound I-63] | –
32 | < 100 nM | 101 to 500 nM | C=CC(=O)Nc1cc(N2CCN(CCOC)CC2)ccc1Nc1ncc2c(n1)N(Cc1cccc(NC(=O)CC)c1)C(=O)N(c1cc(OC)cc(OC)c1)C2 [Compound I-9] | –
33 | < 100 nM | < 100 nM | C=CC(=O)Nc1ccccc1Nc1ncc2c(n1)N(C)C(=O)N(c1c(F)c(OC)cc(OC)c1F)C2 [Compound I-131] | –
34 | 101 to 500 nM | 101 to 500 nM | C=CC(=O)NC1CCCCC1Nc1ncc2c(n1)N(CCOC)C(=O)N(c1c(Cl)c(OC)cc(OC)c1Cl)C2 (racemic) [Compound I-61] | –
35 | 101 to 500 nM | 101 to 500 nM | C=CC(=O)NC1CC=CCC1Nc1ncc2c(n1)N(C)C(=O)N(c1c(Cl)c(OC)cc(OC)c1Cl)C2 (racemic) [Compound I-113] | –
36 | 101 to 500 nM | 101 to 500 nM | C=CC(=O)Nc1ccccc1Nc1ncc2c(n1)N(CC#N)C(=O)N(c1cc(OC)cc(OC)c1)C2 [Compound I-48] | –
37 | 101 to 500 nM | < 100 nM | C=CC(=O)Nc1cc(C(F)(F)F)ccc1Nc1ncc2c(n1)N(C)C(=O)N(c1cc(OC)cc(OC)c1)C2 [Compound I-42] | –
38 | < 100 nM | < 100 nM | C=CC(=O)Nc1ccccc1Nc1ncc2c(n1)N(Cc1cccc(N)c1)C(=O)N(c1c(Cl)c(OC)cc(OC)c1Cl)C2 [Compound I-26] | –
39 | < 100 nM | < 100 nM | COc1cc(OC)c(Cl)c(N2Cc3cnc(Nc4ccccc4)nc3N(C)C2=O)c1Cl [Compound I-238] | –
40 | < 100 nM | 101 to 500 nM | C=CC(=O)Nc1ccccc1Nc1ncc2c(n1)N(Cc1ccc(F)cc1)C(=O)N(c1c(Cl)c(OC)cc(OC)c1Cl)C2 [Compound I-25] | –
41 | < 100 nM | < 100 nM | C=CC(=O)Nc1ccccc1Nc1ncc2c(n1)N(Cc1cn[nH]c1)C(=O)N(c1c(Cl)c(OC)cc(OC)c1Cl)C2 [Compound I-124] | –
